# Biological target: pneumolysin (Streptococcus pneumoniae serotype 2, UniProt Q04IN8)
# Test: Inhibition of the haemolytic activity of pneumolysin (sheep erythrocytes)
# Assay type: cell-based
# Conditions: IC50, inhibition of pneumolysin-induced haemolysis of sheep erythrocytes; class symbols of Table 1
# Chain of pneumolysin (Q04IN8 whole entry): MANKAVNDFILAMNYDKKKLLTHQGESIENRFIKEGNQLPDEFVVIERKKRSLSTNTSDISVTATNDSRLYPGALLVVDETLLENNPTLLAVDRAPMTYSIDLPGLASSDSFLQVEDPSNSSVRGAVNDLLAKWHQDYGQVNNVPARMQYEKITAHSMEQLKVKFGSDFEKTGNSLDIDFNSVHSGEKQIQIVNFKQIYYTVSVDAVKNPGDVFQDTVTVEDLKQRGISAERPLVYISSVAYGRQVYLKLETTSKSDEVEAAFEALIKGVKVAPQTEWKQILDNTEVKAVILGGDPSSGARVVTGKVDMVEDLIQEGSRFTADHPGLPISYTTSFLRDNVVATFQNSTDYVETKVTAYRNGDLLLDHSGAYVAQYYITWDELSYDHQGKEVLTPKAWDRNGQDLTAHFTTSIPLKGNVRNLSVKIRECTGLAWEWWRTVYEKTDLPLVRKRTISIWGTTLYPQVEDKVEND
row,Structure (SMILES),IC50 [µM]
1,"COc1ccc(-n2c(C(=O)N(C)C)c(O)c(O)c2C(=O)N2CCN(C)CC2)cc1 [UL1-027, 3,4-dihydroxy-1-(4-methoxyphenyl)-N,N-dimethyl-5-(4-methylpiperazine-1-carbonyl)-1H-pyrrole-2-carboxamide]",< 10
2,"CCOC(=O)c1c(O)c(O)c(C(=O)OCC)n1-c1ccc(OCCOCCOCCOCCOC)cc1 [UL2-036, diethyl 1-(4-(2,5,8,11-tetraoxatridecan-13-yloxy)phenyl)-3,4-dihydroxy-1H-pyrrole-2,5-dicarboxylate]",< 10
3,"CCOC(=O)c1c(O)c(O)c(C(=O)OCC)n1-c1ccc2c(c1)OCO2 [UL2-019, diethyl 1-(benzo[d][1,3]dioxol-5-yl)-3,4-dihydroxy-1H-pyrrole-2,5-dicarboxylate]",20 to 60
4,"CCOc1ccc(-n2c(C(=O)N3CCOCC3)c(O)c(O)c2C(=O)N2CCOCC2)cc1 [UL1-022, (1-(4-ethoxyphenyl)-3,4-dihydroxy-1H-pyrrole-2,5-diyl)bis(morpholinomethanone)]",< 10
5,"CCOc1ccc(-n2c(C(N)=O)c(O)c(O)c2C(N)=O)cc1 [UL1-077, 1-(4-ethoxyphenyl)-3,4-dihydroxy-1H-pyrrole-2,5-dicarboxamide]",20 to 60
6,"COCCOCCOCCOCCOCCOCCOCCOCC(C)(C)C(=O)Oc1c(OC(=O)C(C)(C)COCCOCCOCCOCCOCCOCCOCCOC)c(C(=O)N(C)C)n(-c2ccc(OC)cc2)c1C(=O)N(C)C [UL1-120, 2,5-bis(dimethylcarbamoyl)-1-(4-methoxyphenyl)-1H-pyrrole-3,4-diyl bis(25,25-dimethyl-2,5,8,11,14,17,20,23-octaoxahexacosan-26-oate)]",10 to 20
7,"COc1ccc(-n2c(C(=O)N(C)C)c(OCc3ccccc3)c(OCc3ccccc3)c2C(=O)N(C)C)cc1 [UL1-047, 3,4-bis(benzyloxy)-1-(4-methoxyphenyl)-N^2,N^2,N^5,N^5-tetramethyl-1H-pyrrole-2,5-dicarboxamide]",10 to 20
8,"CCOC(=O)c1c(O)c(O)c(C(=O)N(C)C)n1-c1ccc(OCCCP(=O)(OCC)OCC)cc1 [UL1-106, ethyl 1-(4-(3-(diethoxyphosphoryl)propoxy)phenyl)-5-(dimethylcarbamoyl)-3,4-dihydroxy-1H-pyrrole-2-carboxylate]",< 10
9,"COc1ccc(-n2c(C(N)=O)c(O)c(O)c2C(N)=O)cc1 [UL1-073, 3,4-dihydroxy-1-(4-methoxyphenyl)-1H-pyrrole-2,5-dicarboxamide]",< 10
10,"COc1ccc(-n2c(C(=O)N3CCCCC3)c(O)c(O)c2C(=O)N2CCCCC2)cc1 [UL1-018, (3,4-dihydroxy-1-(4-methoxyphenyl)-1H-pyrrole-2,5-diyl)bis(piperidin-1-ylmethanone)]",< 10
11,"CCOC(=O)c1c(O)c(O)c(C(=O)OCC)n1-c1ccc(Cl)cc1 [UL2-012, diethyl 1-(4-chlorophenyl)-3,4-dihydroxy-1H-pyrrole-2,5-dicarboxylate]",< 10
12,"CN(Cc1ccccc1)C(=O)c1c(O)c(O)c(C(=O)N(C)Cc2ccccc2)n1-c1ccc(F)cc1 [UL1-014, N^2,N^5-dibenzyl-1-(4-fluorophenyl)-3,4-dihydroxy-N^2,N^5-dimethyl-1H-pyrrole-2,5-dicarboxamide]",< 10
13,"COc1ccc(-n2c(C#N)c(O)c(O)c2C#N)cc1 [UL1-034, 3,4-dihydroxy-1-(4-methoxyphenyl)-1H-pyrrole-2,5-dicarbonitrile]",20 to 60
14,"CCOC(=O)c1c(O)c(O)c(C(=O)OCC)n1-c1ccc(Oc2ccccc2)cc1 [UL2-007, diethyl 3,4-dihydroxy-1-(4-phenoxyphenyl)-1H-pyrrole-2,5-dicarboxylate]",< 10
15,"CCNC(=O)c1c(O)c(O)c(C(=O)N(C)C)n1-c1ccc(OC)cc1 [UL1-024, N^2-ethyl-3,4-dihydroxy-1-(4-methoxyphenyl)-N^5,N^5-dimethyl-1H-pyrrole-2,5-dicarboxamide]",< 10
16,"CCOC(=O)c1c(O)c(O)c(C(=O)OCC)n1-c1ccc(OCC)cc1 [UL2-008, diethyl 1-(4-ethoxyphenyl)-3,4-dihydroxy-1H-pyrrole-2,5-dicarboxylate]",< 10
17,"COc1ccc(-n2c(C(=O)N(C)C)c(OC(=O)c3ccc(COP(=O)(O)O)cc3)c(OC(=O)c3ccc(COP(=O)(O)O)cc3)c2C(=O)N(C)C)cc1 [UL1-124, 2,5-bis(dimethylcarbamoyl)-1-(4-methoxyphenyl)-1H-pyrrole-3,4-diyl bis(4-((phosphonooxy)methyl)benzoate)]",< 10
18,"COc1ccc(-n2c(C(=O)OC(C)C)c(OC(=O)C(C)(C)COCCOCCOP(=O)(O)O)c(OC(=O)C(C)(C)COCCOCCOP(=O)(O)O)c2C(=O)N(C)C)cc1 [UL1-122, 2-(dimethylcarbamoyl)-5-(isopropoxycarbonyl)-1-(4-methoxyphenyl)-1H-pyrrole-3,4-diyl bis(2,2-dimethyl-3-(2-(2-(phosphonooxy)ethoxy)ethoxy)propanoate)]",< 10
19,"CCOC(=O)c1c(O)c(O)c(C#N)n1-c1ccc(F)cc1 [UL1-039, ethyl 5-cyano-1-(4-fluorophenyl)-3,4-dihydroxy-1H-pyrrole-2-carboxylate]",20 to 60

row,Structure (SMILES),IC50 [µM]
1,"CCCOc1ccc(-n2c(C(=O)OCC)c(O)c(O)c2C(=O)OCC)cc1 [UL2-016, diethyl 3,4-dihydroxy-1-(4-propoxyphenyl)-1H-pyrrole-2,5-dicarboxylate]",< 10
2,"CCCCN(CCCC)C(=O)c1c(O)c(O)c(C(=O)OCC)n1-c1ccc(OC)cc1 [UL1-038, ethyl 5-(dibutylcarbamoyl)-3,4-dihydroxy-1-(4-methoxyphenyl)-1H-pyrrole-2-carboxylate]",< 10
3,"COc1ccc(-n2c(C(=O)N(C)C)c(O)c(O)c2P(C)(C)=O)cc1 [UL1-125, 5-(dimethylphosphoryl)-3,4-dihydroxy-1-(4-methoxyphenyl)-N,N-dimethyl-1H-pyrrole-2-carboxamide]",< 10
4,"CCOC(=O)c1c(O)c(O)c(C(=O)N(C)C)n1-c1ccc(OCCOC)cc1 [UL1-093, ethyl 5-(dimethylcarbamoyl)-3,4-dihydroxy-1-(4-(2-methoxyethoxy)phenyl)-1H-pyrrole-2-carboxylate]",< 10
5,"CCOC(=O)c1c(OC(=O)C(C)(C)COCCOCCOCCOCCOCCOCCOCCOC)c(OC(=O)C(C)(C)COCCOCCOCCOCCOCCOCCOCCOC)c(C(=O)N(C)C)n1-c1ccc(OC)cc1 [UL1-119, 2-(dimethylcarbamoyl)-5-(ethoxycarbonyl)-1-(4-methoxyphenyl)-1H-pyrrole-3,4-diyl bis(25,25-dimethyl-2,5,8,11,14,17,20,23-octaoxahexacosan-26-oate)]",< 10
6,"CCOC(=O)c1c(O)c(O)c(C(=O)OC(C)C)n1-c1ccc(OC)cc1 [UL2-021, 2-ethyl 5-isopropyl 3,4-dihydroxy-1-(4-methoxyphenyl)-1H-pyrrole-2,5-dicarboxylate]",< 10
7,"CCOC(=O)c1c(OCc2ccccc2)c(OCc2ccccc2)c(-c2cccnc2)n1-c1ccc(OC)cc1 [UL1-085, ethyl 3,4-bis(benzyloxy)-1-(4-methoxyphenyl)-5-(pyridin-3-yl)-1H-pyrrole-2-carboxylate]",< 10
8,"CCOC(=O)c1c(O)c(O)c(C(=O)N(C)C)n1-c1ccc(OCCCP(=O)(O)O)cc1 [UL1-107, (3-(4-(2-(dimethylcarbamoyl)-5-(ethoxycarbonyl)-3,4-dihydroxy-1H-pyrrol-1-yl)phenoxy)propyl)phosphonic acid]",< 10
9,"CCOC(=O)c1c(O)c(O)c(C(=O)OCC)n1-c1ccc(OCc2ccc(OC)cc2)cc1 [UL2-038, diethyl 3,4-dihydroxy-1-(4-((4-methoxybenzyl)oxy)phenyl)-1H-pyrrole-2,5-dicarboxylate]",< 10
10,"COc1ccc(-n2c(C(=O)OC3C(C)CCCC3C)c(O)c(O)c2C(=O)N(C)C)cc1 (stereo not drawn) [UL1-113, 2,6-dimethylcyclohexyl 5-(dimethylcarbamoyl)-3,4-dihydroxy-1-(4-methoxyphenyl)-1H-pyrrole-2-carboxylate]",< 10
11,"CCOC(=O)c1c(O)c(O)c(C(=O)NC)n1-c1ccc(OC)cc1 [UL1-099, ethyl 3,4-dihydroxy-1-(4-methoxyphenyl)-5-(methylcarbamoyl)-1H-pyrrole-2-carboxylate]",< 10
12,"COc1ccc(-n2c(C(=O)OC3CCCC3)c(O)c(O)c2C(=O)N(C)C)cc1 [UL1-116, cyclopentyl 5-(dimethylcarbamoyl)-3,4-dihydroxy-1-(4-methoxyphenyl)-1H-pyrrole-2-carboxylate]",< 10
13,"CN(C)C(=O)c1c(O)c(O)c(C(=O)N(C)C)n1-c1ccc(C(F)(F)F)cc1 [UL1-028, 3,4-dihydroxy-N^2,N^2,N^5,N^5-tetramethyl-1-(4-(trifluoromethyl)phenyl)-1H-pyrrole-2,5-dicarboxamide]",< 10
14,"O=C(c1c(O)c(O)c(C(=O)N2CCCCC2)n1-c1ccc(F)cc1)N1CCCCC1 [UL1-011, (1-(4-fluorophenyl)-3,4-dihydroxy-1H-pyrrole-2,5-diyl)bis(piperidin-1-ylmethanone)]",< 10
15,"CCOC(=O)c1c(O)c(O)c(C(=O)OCC)n1-c1ccc(C(F)(F)F)cc1 [UL2-013, diethyl 3,4-dihydroxy-1-(4-(trifluoromethyl)phenyl)-1H-pyrrole-2,5-dicarboxylate]",< 10
16,"CCOC(=O)c1c(O)c(O)c(-c2ccccn2)n1-c1ccc(OC)cc1 [UL1-083, ethyl 3,4-dihydroxy-1-(4-methoxyphenyl)-5-(pyridin-2-yl)-1H-pyrrole-2-carboxylate]",< 10
17,"O=C(c1c(O)c(O)c(C(=O)N2CCOCC2)n1-c1ccc(C(F)(F)F)cc1)N1CCOCC1 [UL1-023, (3,4-dihydroxy-1-(4-(trifluoromethyl)phenyl)-1H-pyrrole-2,5-diyl)bis(morpholinomethanone)]",< 10
18,"COc1ccc(-n2c(C#N)c(O)c(O)c2C(=O)N(C)C)cc1 [UL1-031, 5-cyano-3,4-dihydroxy-1-(4-methoxyphenyl)-N,N-dimethyl-1H-pyrrole-2-carboxamide]",< 10
19,"CCOC(=O)c1c(OCc2ccccc2)c(OCc2ccccc2)c(C(N)=O)n1-c1ccc(OC)cc1 [UL1-079, ethyl 3,4-bis(benzyloxy)-5-carbamoyl-1-(4-methoxyphenyl)-1H-pyrrole-2-carboxylate]",< 10

# Same assay, conditions: IC50, inhibition of pneumolysin-induced haemolysis of sheep erythrocytes; specific values
row,Structure (SMILES),IC50 [µM]
1,"CCOC(=O)c1c(O)c(O)c(C(=O)N(C)C)n1-c1ccc(OCCCP(=O)(OCC)OCC)cc1 [UL1-106, ethyl 1-(4-(3-(diethoxyphosphoryl)propoxy)phenyl)-5-(dimethylcarbamoyl)-3,4-dihydroxy-1H-pyrrole-2-carboxylate]",0.17
2,"CCNC(=O)c1c(O)c(O)c(C(=O)N(C)C)n1-c1ccc(OC)cc1 [UL1-024, N^2-ethyl-3,4-dihydroxy-1-(4-methoxyphenyl)-N^5,N^5-dimethyl-1H-pyrrole-2,5-dicarboxamide]",0.182
3,"COc1ccc(-n2c(C(=O)OC3CCCC3)c(O)c(O)c2C(=O)N(C)C)cc1 [UL1-116, cyclopentyl 5-(dimethylcarbamoyl)-3,4-dihydroxy-1-(4-methoxyphenyl)-1H-pyrrole-2-carboxylate]",0.18
4,"CN(C)C(=O)c1c(O)c(O)c(C(=O)N(C)C)n1-c1ccc(C(F)(F)F)cc1 [UL1-028, 3,4-dihydroxy-N^2,N^2,N^5,N^5-tetramethyl-1-(4-(trifluoromethyl)phenyl)-1H-pyrrole-2,5-dicarboxamide]",0.068

# — patent US9221756B2, “Pyrrole derivatives” (priority 2011, dated 2015)
